One test deals with U87-luc cells. Briefly: Orthotopic xenograft model (U87-luc cells transplanted into the cerebrum), bioluminescence and survival. Format: in vivo, male athymic nude mice. The conditions noted are these: 5 weeks after transplantation; oral gossypol 40 mg/kg and/or phenformin 100 mg/kg each day, FIG. 7.
Another test deals with U87 neurosphere cells. Briefly: Analysis of formation of neurospheres. Format: cell-based. The conditions noted are these: 1 μM gossypol, 10 μM phenformin or mixture, 3 weeks, FIG. 3. As to the method: U87 cells were cultured in DMEM/F-12 medium containing 2 wt % 1×B27, 0.02 wt % bFGF (20 ng/ml), 0.02 wt % EGF (20 ng/ml) and 50 U/ml penicillin-[…] (100×, Gibco, Invitrogen Korea, Seoul, South Korea) to form tumor spheres. Next, the cells were seeded onto a 96-well plate at a density of 10 cells/well and treated with each of 1 μM gossypol, 10 μM phenformin and a mixture of 1 μM gossypol and 10 μM phenformin. Then, the cells were cultured at 37° C. for 3 weeks.
In FIG. 4, the percent change in the radius of the neurospheres is expressed as the percentage of the average radius of the neurospheres after each treatment relative to the average radius of the neurospheres seeded onto the 96-well plate, and in FIG. 5, the degree of neurosphere formation is expressed as the percentage of the number of the neurosphere cells after each treatment relative to the number of the neurosphere cells seeded onto the 96-well plate.

The test system of a further test is U87 cells (GBM cells). Briefly: MTT assay of cell viability following treatment with gossypol. Format: cell-based. The note with it: 0.5, 1, 5, 10 and 50 μM gossypol, 72 hours, FIG. 1. As to the method: U87 cells (GBM cells) were treated with 0.5, 1, 5, 10 and 50 μM of gossypol for 72 hours (FIG. 1).

SMILES strings stand for the structures.

The results in this text go back to patent US10646460B2, “Pharmaceutical composition for inhibiting growth of cancer stem cells, containing aldehyde inhibitor and biguanide-based compound” (NATIONAL CANCER CENTER, priority 2015, dated 2020).

Procedure for U87-luc cells: Gossypol and phenformin to be used in an animal study were dissolved in DMSO and PBS, respectively. A composition for co-administration of gossypol and phenformin was dissolved in PBS containing 10 wt % DMSO and 10 wt % cremophor.
For preparation of orthotopic xenograft models, 4-8-week-old male athymic nude mice (Central Lab., Korea) were used. For stabilization, the mice were maintained in a sterilized environment for at least one week before use in the experiment while they were fed with a sufficient diet. […] First, the mice were anesthetized by intraperitoneal injection of 30 mg/kg of Zoletil and 10 mg/kg of Xylazine, and 2×10^5 U87-luc cells were transplanted into the right frontal lobe of the cerebrum to a depth of 4.5 mm by use of a Hamilton syringe. The U87-luci cells were injected into five mice of the same group at the same time at a rate of 0.5 l/minute by use of a micro-infusion syringe pump. Thereafter, the mice were administered orally with gossypol (40 mg/kg) and/or phenformin (100 mg/kg) each day.
An increase or decrease in the body weight was checked each day, and when a mouse whose body weight decreased by 15 wt % compared to the body weight before the start of the experiment, the mouse was euthanized according to the approved protocol. […]

Take `Cc1cc2c(C(C)C)c(O)c(O)c(C=O)c2c(O)c1-c1c(C)cc2c(C(C)C)c(O)c(O)c(C=O)c2c1O` [gossypol]: in the test with U87-luc cells, the “degree of occurrence of brain cancer (bioluminescence signal)” value is listed as “fluorescence was observed”. Besides, the “size of neurosphere cells / presence in cell photographs” value in the test on U87 neurosphere cells is listed as “the size of the neurosphere cells decreased”. In addition, in the test on U87 cells (GBM cells), the “growth of the cells (MTT assay)” value was “growth of the cells was inhibited”.
For the molecule `NC(N)=N/C(N)=N/CCc1ccccc1` [phenformin], the “degree of occurrence of brain cancer (bioluminescence signal)” value in the test with U87-luc cells is given as “fluorescence was observed”. For the same molecule, the “size of neurosphere cells / presence in cell photographs” value with U87 neurosphere cells is on record as “the size of the neurosphere cells decreased”.
